From patent US20060062832A1, “Sanitizing wipes with microbicidal properties cross-reference to related applications” (priority 2004, published 2006) come the findings set out here.

Holding throughout (type): cell-based
The subject of assay [1] is Aeromonas hydrophila ATCC 7965. The experiment in a line: modified detergent and germicidal sanitizer test of the A.O.A.C. The following applies: A.h. 7965. How it is done: (§1) The […], Listeria monocytogenes, Aeromonas hydrophila, and Pseudomonas aeruginosa essentially by the modified detergent and germicidal sanitizer test of the A.O.A.C. The sanitizers were tested against both natural isolates and the antibiotic resistant strains of Listeria monocytogenes and Salmonella typhimurium. Each of the antibiotic resistant strains was used separately as well as in a composite strain prepared by mixing equal numbers of five different antibiotic resistant strains of Listeria monocytogenes or those of Salmonella typhimurium, respectively.

In assay [2] the test system is Listeria monocytogenes ATCC 7644. The assay is described as above. The note with it: L.m. 7644. The procedure:
as §1

For assay [3], the system named is Pseudomonas aeruginosa ATCC 10145. The assay is described as above. The following applies: P.a. 10145. How it is done:
(§2) The efficacy of the sanitizers of Examples I-III were further evaluated with 50 ppm of hypochlorite as a control against Salmonella typhimurium, Listeria monocytogenes, Aeromonas hydrophila, and Pseudomonas aeruginosa essentially by the modified detergent and germicidal sanitizer test of the A.O.A.C. The sanitizers were tested against both natural isolates and the antibiotic resistant strains of Listeria monocytogenes and Salmonella typhimurium. Each of the antibiotic resistant strains was used separately as well as in a composite strain prepared by mixing equal numbers of five different antibiotic resistant strains of Listeria monocytogenes or those of Salmonella typhimurium, respectively.

For assay [4], the system named is Escherichia coli ATCC 11229. As to the kind of experiment: A.O.A.C. sanitizer and germicidal detergent test. The note with it: compositions at listed % w/v; hypochlorite 50 ppm; sanitizer criterion 99.999% in 30 s. The source says: (§3) The bacterial cultures were purchased from the American Type Culture Collection (ATCC), (Bethesda, Md.). Escherichia coli and Staphylococcus aureus are used to represent both gram negative and gram-positive bacterial classes. This test is used by the US EPA for to determine compliance for a product to be used as a sanitizing agent. A product that reduces population density of both types of bacteria in 30 s by 99.999% satisfies the requirement as a sanitizing agent.

Assay [5] relates to Staphylococcus aureus ATCC 6538. The experiment in a line: A.O.A.C. sanitizer and germicidal detergent test. The note with it: compositions at listed % w/v; hypochlorite 50 ppm; sanitizer criterion 99.999% in 30 s.
Description: as §3

The subject of assay [6] is Salmonella typhimurium ATCC 7823. The experiment in a line: modified detergent and germicidal sanitizer test of the A.O.A.C. Also on record: key to Number of surviving bacteria/ml after 30 seconds: Too Numerous To Count. The following applies: S.t. 7823. How it is done:
as §2

Where [7] appears, read: 30 seconds contact, HOCL = 200 ppm (mark on the cfu cell beside).

As for `OCl` [Hypochlorite], the “% Kill after 30 seconds” value in assay [1] (setting [7]) is given as >99.999%; in assay [2] (setting [7]), >99.999%; in assay [3] (30 seconds contact), >99.999%; in assay [6] (30 seconds contact, HOCL = 50 ppm (mark on the cfu cell beside)), <99.999%. Also, the “% Kill after 60 seconds” value in assay [1] (60 seconds contact), in assay [2] (60 seconds contact), in assay [3] (60 seconds contact) and in assay [6] (60 seconds contact) was >99.999% in each case. Further, the “% Kill E. coli” value in assay [4] is reported as >99.999%. The “% Kill Staph. aureus” value in assay [5] is listed as >99.999%. Moreover, the “Number of surviving bacteria/ml after 30 seconds” value in assay [6] (30 seconds contact, HOCL = 50 ppm) was “T@, T@”.
